# Experimental data from patent US4749710A, “Immunosuppressive agents” (priority 1985, dated 1988).
# What was measured:
# [1] = test system: IgM production by human lymphocytes; test: Inhibition of IgM production by human lymphocytes in vitro (SAC activation, ELISA); assay type: cell-based; conditions: 8 days, vehicle control 2.49 ± 0.17
# Excerpt: (§1) General Test Description Humoral immunity comprises one of the two major arms of the immune system and generally is beneficial. However, a number of disease states are characterized by a hyperactive immune system responding to self tissue antigens. […] In these diseases it would be important to suppress the humoral immune system.
# (§2) In the following studies we used established methods to examine the effect of Vitamin D derivatives on the in vitro production of immunoglobulin (Ig) by human peripheral blood leukocytes (PBL) following polyclonal activation. Immunoglobulin was induced from PBL by co-culturing the PBL with the polyclonal B cell activator Staphylococcus aureus strain Cowan I (SAC) for a period of 8 days. The quantity of Ig produced in the culture supernatants was determined by using an enzyme linked immunosorbent assay (ELISA). The effect of Vitamin D derivatives was determined by comparing the amount of antibody produced in cultures containing Vitamin D derivatives to those cultures containing an appropriate concentration of vehicle (ethanol).
# (§3) Solutions of vitamin D derivatives. Stock solutions of vitamin D derivatives were prepared as described previously for the murine CTL experiments.
# (§4) INDUCTION OF HUMAN IG SECRETION Human peripheral blood mononuclear leukocytes were prepared from one day old buffy coat preparations obtained from the American Red Cross (Lansing, MI). […] Twenty five ml of this preparation were overlayed onto 25 ml of Ficoll-Paque contained in a 50 ml polypropylene centrifuge tube. After centrifugation at 400×g at 15° C. for 40 min, the cells at the interface of the medium and Ficoll were removed and washed 3 times in 50 ml RPMI medium and centrifuged at 300×g for 10 minutes. After the final centrifugation,the cell pellet was suspended in RPMI medium containing 20% fetal bovine serum (FBS) and 80 μg/ml gentamicin. The number of viable cells was determined by trypan blue exclusion and were then suspended to 2.5×10^6 viable cells per ml in RPMI containing 20% FBS and gentamicin. Human PBL were induced to secrete Ig as follows. One hundred microliters of the PBL suspension and an additional 100 μl of a 1:20,000 (v/v) preparation of SAC suspended in RPMI containing 1% FBS were added to each well of a 96-well microtiter plate. Selected wells were also set up without the addition of SAC to serve as negative controls (spontaneous Ig secretion). Each well then received 20 μl of either the appropriate dilution of Vitamin D derivative in RPMI with 1% ethanol or RPMI with 1% ethanol (vehicle control). The vitamin D derivatives were tested at final concentrations of 10^-5, 10^-6, 10^-7, 10^-8, 10^-9, and 10^-10 M and in all cases the vehicle (ethanol) concentration was 0.1%. All treatments were performed in triplicate. […] The samples were then either assayed immediately or stored at -20° C. until assayed by the ELISA technique described below.
# (§5) QUANTITATION OF SECRETED IG (ELISA ASSAY) ELISA plates were prepared for quantitating human IgG and IgM levels in culture supernatants as follows. Affinity purified sheep anti-human IgG and goat anti-human IgM (Cappel, Cochranville, PA) were diluted 1:250 and 1:400 respectively, in carbonate coating buffer (0.05M sodium bicarbonate, 0.05M sodium carbonate, 0.15M sodium chloride). One hundred and fifty microliters of the antibody preparation were added to each well of a 96 well ELISA plate (EIA, Costar). The plates were sealed and incubated overnight at 4° C. and on the following day were washed 3 times with distilled water. Each well then received 350 μl of Dulbecco's PBS containing 1 mg/ml bovine serum albumin (BSA) and 0.5 mg/ml sodium azide. The plates were allowed to incubate for 1 hour at 37° C. and then washed 3 times with Dulbecco's PBS containing 0.5% stock Tween 20 (PBS-Tween) followed by 2 washes with distilled water. The plates were air dried and stored desiccated under a vacuum at 4° C. until use.
# [2] = test system: IgG production by human lymphocytes; test: Inhibition of IgG production by human lymphocytes in vitro (SAC activation, ELISA); assay type: cell-based; conditions: 8 days, vehicle control 0.78 ± 0.09
# Excerpt: as §1, §2, §3, §4, §5
SMILES,IgM μg per culture (x ± S.E.M.) ([1]; 1 × 10^-6 molar),IgM μg per culture (x ± S.E.M.) ([1]; 1 × 10^-7 molar),IgM μg per culture (x ± S.E.M.) ([1]; 1 × 10^-8 molar),IgM μg per culture (x ± S.E.M.) ([1]; 1 × 10^-9 molar),IgM μg per culture (x ± S.E.M.) ([1]; 1 × 10^-10 molar),IgG μg per culture (x ± S.E.M.) ([2]; 1 × 10^-6 molar),IgG μg per culture (x ± S.E.M.) ([2]; 1 × 10^-7 molar),IgG μg per culture (x ± S.E.M.) ([2]; 1 × 10^-8 molar),IgG μg per culture (x ± S.E.M.) ([2]; 1 × 10^-9 molar),IgG μg per culture (x ± S.E.M.) ([2]; 1 × 10^-10 molar)
"C=C1/C(=C\C=C2/CCC[C@]3(C)[C@@H]([C@H](C)C[C@H](O)CC(C)(C)O)CC[C@@H]23)C[C@@H](O)C[C@@H]1O [1α,23S,25-(OH)3 --D3, 1α,23S,25-Trihydroxycholecalciferol]",undetectable,0.12 ± 0.07 μg per culture,0.46 ± 0.13 μg per culture,1.55 ± 0.96 μg per culture,4.61 ± 0.73 μg per culture,0.01 ± 0.002 μg per culture,0.02 ± 0.002 μg per culture,0.05 ± 0.01 μg per culture,1.14 ± 0.61 μg per culture,0.54 ± 0.18 μg per culture
"C=C1/C(=C\C=C2/CCC[C@]3(C)[C@@H]([C@H](C)/C=C/[C@H](C)[C@](C)(O)CO)CC[C@@H]23)C[C@@H](O)C[C@@H]1O [1α,25S,26-(OH)3 --D2, 1α,25S,26-Trihydroxyergocalciferol]",0.01 ± 0.006 μg per culture,0.03 ± 0.01 μg per culture,0.14 ± 0.12 μg per culture,0.29 ± 0.17 μg per culture,1.09 ± 0.26 μg per culture,undetectable,0.01 ± 0.005 μg per culture,0.07 ± 0.02 μg per culture,0.08 ± 0.03 μg per culture,0.21 ± 0.06 μg per culture
"C=C1/C(=C\C=C2/CCC[C@]3(C)[C@@H]([C@H](C)C=CC[C@](C)(O)CO)CC[C@@H]23)C[C@@H](O)C[C@@H]1O [1α,25S,26-(OH)3 --Δ^22 -D3, 1α,25S,26-Trihydroxy-Δ^22-cholecalciferol]",undetectable,0.05 ± 0.03 μg per culture,0.09 ± 0.04 μg per culture,0.24 ± 0.07 μg per culture,1.02 ± 0.34 μg per culture,0.005 ± 0.002 μg per culture,0.01 ± 0.002 μg per culture,0.04 ± 0.01 μg per culture,0.06 ± 0.03 μg per culture,0.20 ± 0.03 μg per culture
